According to US20260274853A1, “BIFUNCTIONAL COMPOUNDS CONTAINING PYRIMIDINE DERIVATIVES FOR DEGRADING CYCLIN-DEPENDENT KINASE 2 VIA UBIQUITIN PROTEASOME PATHWAY” (NIKANG THERAPEUTICS, INC., priority 2022, published 2026):

Tests used:
CDK2 [1] = target: T1, CDK2 (Homo sapiens, UniProt P24941); test: Inhibition of CDK2: phospho-Rb (S807/811) HTRF measurement in OVCAR3 cells; assay type: cell-based; conditions: 24 h compound treatment, read-out: pRb (nM), IC50 in pRB(S807/811) assay
T1 construct: High-Throughput Measurement of Cellular Endogenous CDK2; endogenous in cells; host or cells: OVCAR3

CDK2 [2] = target: T1, CDK2; test: CDK2 HTRF assay: cellular endogenous CDK2 level in OVCAR3 cells; assay type: cell-based; conditions: 24 hours compound treatment, read-out: DC50 (half maximal degradation concentration of CDK2)
Outline: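 Endogenous CDK2 degradation in OVCAR3 cells after 24 h compound treatment at 0.3–10,000 nM. Lysates assayed with an HTRF total-CDK2 two-antibody kit, TR-FRET 665/620 ratio normalized to DMSO. DC50 from four-parameter logistic fit, reported as potency bins.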

Row | Structure (SMILES) | IC50 (CDK2 [1]) [nM] | DC50 (CDK2 [2]) [nM]
1 | O=C1CCC(N2C(=O)c3cc(F)c(N4CC5(CN(Cc6cccc(S(=O)(=O)N7CCC(Nc8ncc(C(F)(F)F)c(-c9cnn(CC(F)(F)F)c9)n8)CC7)c6)C5)C4)cc3C2=O)C(=O)N1 (stereo not shown) [Example 31, 2-(2,6-dioxopiperidin-3-yl)-5-fluoro-6-(6-(3-((4-((4-(1-(2,2,2-trifluoroethyl)-1H-pyrazol-4-yl)-5-(trifluoromethyl)-pyrimidin-2-yl)amino)piperidin-1-yl)-sulfonyl)benzyl)-2,6-diazaspiro[3.3]-heptan-2-yl)isoindoline-1,3-dione] | < 100 | < 100
2 | O=C1CCC(c2ccc(N3CCN(Cc4cccc(S(=O)(=O)N5CCC(Nc6ncc(C(F)(F)F)c(-c7cnn(CC(F)(F)F)c7)n6)[C@H](F)C5)c4)CC3)c(F)c2)C(=O)N1 (mixture of isomers) [Example 29, Rac-3-(3-fluoro-4-(4-(3-(((3R,4S)-3-fluoro-4-((4-(1-(2,2,2-trifluoroethyl)-1H-pyrazol-4-yl)-5-(trifluoromethyl)-pyrimidin-2-yl)amino)piperidin-1-yl)-sulfonyl)benzyl)piperazin-1-yl)phenyl)-piperidine-2,6-dione] | < 100 | < 100
3 | O=C1CCC(N2CC3CCC(C2)N3Cc2cccc(S(=O)(=O)N3CCC(Nc4ncc(C(F)(F)F)c(-c5cnn(CC(F)(F)F)c5)n4)CC3)c2)C(=O)N1 (stereo not shown) [Example 65, 3-(8-(3-((4-((4-(1-(2,2,2-trifluoro-ethyl)-1H-pyrazol-4-yl)-5-(trifluoro-methyl)pyrimidin-2-yl)amino)-piperidin-1-yl)sulfonyl)benzyl)-3,8-diazabicyclo-[3.2.1]octan-3-yl)-piperidine-2,6-dione] | < 100 | < 100
4 | Cn1c(=O)n(C2CCC(=O)NC2=O)c2cccc(C3CCN(Cc4cccc(S(=O)(=O)N5CCC(Nc6ncc(C(F)(F)F)c(-c7cnn(CC(F)(F)F)c7)n6)CC5)c4)CC3)c21 (stereo not shown) [Example 8, 3-(3-methyl-2-oxo-4-(1-(3-((4-((4-(1-(2,2,2-trifluoroethyl)-1H-pyrazol-4-yl)-5-(trifluoromethyl)pyrimidin-2-yl)amino)-piperidin-1-yl)sulfonyl)-benzyl)-piperidin-4-yl)-2,3-dihydro-1H-benzo[d]-imidazol-1-yl)piperidine-2,6-dione] | < 100 | < 100
5 | Cn1nc(N2CCC(=O)NC2=O)c2ccc(N3CCN(CC4CCN(S(=O)(=O)N5CCC(Nc6ncc(C(F)(F)F)c(-c7cnn(CC(F)(F)F)c7)n6)CC5)CC4)CC3)cc21 [Example 86, 1-(1-methyl-6-(4-((1-((4-((4-(1-(2,2,2-trifluoroethyl)-1H-pyrazol-4-yl)-5-(trifluoromethyl)pyrimidin-2-yl)-amino)piperidin-1-yl)sulfonyl)-piperidin-4-yl)methyl)piperazin-1-yl)-1H-indazol-3-yl)dihydropyrimidine-2,4(1H,3H)-dione] | < 100 | < 100
6 | O=C1CCC(N2C(=O)c3cc(F)c(N4CCN(Cc5cccc(S(=O)(=O)N6CCC(Nc7ncc(C(F)(F)F)c(-c8cnn(CC(F)(F)F)c8)n7)CC6)c5)CC4)cc3C2=O)C(=O)N1 (stereo not shown) [Example 1, 2-(2,6-dioxopiperidin-3-yl)-5-fluoro-6-(4-(3-((4-((4-(1-(2,2,2-trifluoroethyl)-1H-pyrazol-4-yl)-5-(trifluoromethyl)pyrimidin-2-yl)amino)piperidin-1-yl)sulfonyl)benzyl)piperazin-1-yl)isoindoline-1,3-dione] | 100 to 500 | 100 to 500
7 | Cn1c(S(=O)(=O)N2CCC(Nc3ncc(C(F)(F)F)c(-c4cnn(CC(F)(F)F)c4)n3)CC2)cnc1CN1CCN(c2ccc3c(N4CCC(=O)NC4=O)nn(C)c3c2)CC1 [Example 69, 1-(1-methyl-6-(4-((1-methyl-5-((4-((4-(1-(2,2,2-trifluoroethyl)-1H-pyrazol-4-yl)-5-(trifluoromethyl)pyrimidin-2-yl)amino)-piperidin-1-yl)sulfonyl)-1H-imidazol-2-yl)methyl)piperazin-1-yl)-1H-indazol-3-yl)dihydropyrimidine-2,4(1H,3H)-dione] | < 100 | < 100
8 | O=C1CCC(N2Cc3cc(N4CCN(Cc5cccc(S(=O)(=O)N6CCC(Nc7ncc(C(F)(F)F)c(-c8cnn(CC(F)(F)F)c8)n7)CC6)c5)CC4)c(F)cc3C2=O)C(=O)N1 (stereo not shown) [Example 15, 3-(6-fluoro-1-oxo-5-(4-(3-((4-((4-(1-(2,2,2-trifluoroethyl)-1H-pyrazol-4-yl)-5-(trifluoromethyl)pyrimidin-2-yl)-amino)piperidin-1-yl)sulfonyl)benzyl)-piperazin-1-yl)isoindolin-2-yl)-piperidine-2,6-dione] | < 100 | < 100
9 | Cn1c(S(=O)(=O)N2CCC(Nc3ncc(C(F)(F)F)c(-c4cnn(CC(F)(F)F)c4)n3)CC2)cnc1CN1CCN(c2cc3c(cc2F)C(=O)N(C2CCC(=O)NC2=O)C3=O)CC1 (stereo not shown) [Example 30, 2-(2,6-dioxopiperidin-3-yl)-5-fluoro-6-(4-((1-methyl-5-((4-((4-(1-(2,2,2-trifluoroethyl)-1H-pyrazol-4-yl)-5-(trifluoromethyl)pyrimidin-2-yl)amino)-piperidin-1-yl)sulfonyl)-1H-imidazol-2-yl)methyl)piperazin-1-yl)isoindoline-1,3-dione] | 100 to 500 | < 100

Other lines, results leading:

Row | IC50 (CDK2 [1]) [nM] | DC50 (CDK2 [2]) [nM] | Structure (SMILES)
10 | < 100 | < 100 | Cn1nc(N2CCC(=O)NC2=O)c2ccc(N3CCN(CC4CCN(c5cccc(S(=O)(=O)N6CCC(Nc7ncc(C(F)(F)F)c(-c8cnn(CC(F)(F)F)c8)n7)CC6)c5)CC4)CC3)cc21 [Example 67, 1-(1-methyl-6-(4-((1-(3-((4-((4-(1-(2,2,2-trifluoroethyl)-1H-pyrazol-4-yl)-5-(trifluoromethyl)pyrimidin-2-yl)amino)-piperidin-1-yl)sulfonyl)phenyl)piperidin-4-yl)methyl)-piperazin-1-yl)-1H-indazol-3-yl)-dihydropyrimidine-2,4(1H,3H)-dione]
11 | < 100 | < 100 | CC(C)(O)Cn1cc(-c2nc(NC3CCN(S(=O)(=O)c4cccc(CN5CCN(c6ccc(N7CCC(=O)NC7=O)cc6)CC5)c4)CC3)ncc2C(F)(F)F)cn1 [Example 24, 1-(4-(4-(3-((4-((4-(1-(2-hydroxy-2-methylpropyl)-1H-pyrazol-4-yl)-5-(trifluoromethyl)pyrimidin-2-yl)amino)-piperidin-1-yl)sulfonyl)benzyl)-piperazin-1-yl)phenyl)dihydro-pyrimidine-2,4(1H,3H)-dione]
12 | < 100 | < 100 | CC(Cc1cccc(S(=O)(=O)N2CCC(Nc3ncc(C(F)(F)F)c(-c4cnn(-c5ccccc5F)c4)n3)CC2)c1)N1CCC(c2ccc3c(N4CCC(=O)NC4=O)nn(C)c3c2)CC1 (stereo not shown) [Example 96, 1-(6-(1-(1-(3-((4-((4-(1-(2-fluoro-phenyl)-1H-pyrazol-4-yl)-5-(trifluoro-methyl)pyrimidin-2-yl)amino)-piperidin-1-yl)sulfonyl)phenyl)propan-2-yl)-piperidin-4-yl)-1-methyl-1H-indazol-3-yl)dihydropyrimidine-2,4(1H,3H)-dione]
13 | < 100 | < 100 | Cn1nc(N2CCC(=O)NC2=O)c2ccc(C3CCN(C(c4cccc(S(=O)(=O)N5CCC(Nc6ncc(C(F)(F)F)c(-c7cnn(CC(F)(F)F)c7)n6)CC5)c4)C(F)F)CC3)cc21 (stereo not shown) [Example 84, 1-(6-(1-(2,2-difluoro-1-(3-((4-((4-(1-(2,2,2-trifluoroethyl)-1H-pyrazol-4-yl)-5-(trifluoromethyl)pyrimidin-2-yl)amino)-piperidin-1-yl)sulfonyl)-phenyl)ethyl)-piperidin-4-yl)-1-methyl-1H-indazol-3-yl)dihydropyrimidine-2,4(1H,3H)-dione]
14 | < 100 | < 100 | Cn1nc(N2CCC(=O)NC2=O)c2ccc(C3CCN(Cc4cccc(S(=O)(=O)N5CCC(Nc6ncc(C(F)(F)F)c(-c7cnn(CC(F)(F)F)c7)n6)CC5)c4)CC3)cc21 [Example 4, 1-(1-methyl-6-(1-(3-((4-((4-(1-(2,2,2-trifluoroethyl)-1H-pyrazol-4-yl)-5-(trifluoromethyl)pyrimidin-2-yl)amino)-piperidin-1-yl)sulfonyl)-benzyl)-piperidin-4-yl)-1H-indazol-3-yl)dihydro-pyrimidine-2,4(1H,3H)-dione]
15 | < 100 | < 100 | Cn1nc(N2CCC(=O)NC2=O)c2ccc(C3CCN(Cc4cc(S(=O)(=O)N5CCC(Nc6ncc(C(F)(F)F)c(-c7cnn(CC(F)(F)F)c7)n6)CC5)ccc4F)CC3)cc21 [Example 61, 1-(6-(1-(2-fluoro-5-((4-((4-(1-(2,2,2-trifluoroethyl)-1H-pyrazol-4-yl)-5-(trifluoromethyl)pyrimidin-2-yl)-amino)piperidin-1-yl)sulfonyl)benzyl)-piperidin-4-yl)-1-methyl-1H-indazol-3-yl)dihydropyrimidine-2,4(1H,3H)-dione]
16 | < 100 | < 100 | Cn1nc(N2CCC(=O)NC2=O)c2ccc(C3CCN(Cc4cccc(S(=O)(=O)[C@H]5CC[C@H](Nc6ncc(C(F)(F)F)c(-c7cnn(CC(F)(F)F)c7)n6)CC5)c4)CC3)cc21 [Example 74, 1-(1-methyl-6-(1-(3-(((1r,4r)-4-((4-(1-(2,2,2-trifluoroethyl)-1H-pyrazol-4-yl)-5-(trifluoromethyl)pyrimidin-2-yl)-amino)cyclohexyl)sulfonyl)benzyl)-piperidin-4-yl)-1H-indazol-3-yl)dihydro-pyrimidine-2,4(1H,3H)-dione]
17 | < 100 | < 100 | Cn1nc(N2CCC(=O)NC2=O)c2ccc(C3CCN(CC(C)(C)c4cccc(S(=O)(=O)N5CCC(Nc6ncc(C(F)(F)F)c(-c7cnn(CC(F)(F)F)c7)n6)CC5)c4)CC3)cc21 [Example 90, 1-(1-methyl-6-(1-(2-methyl-2-(3-((4-((4-(1-(2,2,2-trifluoroethyl)-1H-pyrazol-4-yl)-5-(trifluoromethyl)-pyrimidin-2-yl)-amino)piperidin-1-yl)sulfonyl)phenyl)-propyl)piperidin-4-yl)-1H-indazol-3-yl)-dihydro-pyrimidine-2,4(1H,3H)-dione]
